Results: patent publication US10494366B2, “Pesticidally active amide heterocyclic derivatives with sulphur containing substituents” (Syngenta Participations AG, priority 2014, dated 2019)

Legend:
Assay type in all cases: in vivo
[1] = test system: Spodoptera littoralis (Egyptian cotton leaf worm); assay: Example B1: Spodoptera littoralis, sprayed cotton leaf discs; conditions: foliar, 72 h, application rate 200 ppm, L1 larvae, 3 days after infestation, read-out: control in at least one of the three categories (mortality, anti-feedancy or growth inhibition)
[2] = test system: Spodoptera littoralis (Egyptian cotton leaf worm); assay: Example B2: Spodoptera littoralis, systemic test via lettuce roots in agar; conditions: 144 h, application rate 12.5 ppm, Spodoptera eggs, 6 days after infestation, read-out: control in at least one of the three categories (mortality, anti-feedancy or growth inhibition)
[3] = test system: Plutella xylostella (diamond back moth); assay: Example B3: Plutella xylostella, treated artificial diet; conditions: 120 h, application rate 200 ppm, L2 larvae, 5 days after infestation, read-out: effect in at least one of the two categories (mortality or growth inhibition)
Protocol: (§1) 24-well microtiter plates with artificial diet were treated with aqueous test solutions prepared from 10,000 ppm DMSO stock solutions by pipetting. After drying, the plates were infested with L2 larvae (10 to 15 per well). The samples were assessed for mortality and growth inhibition in comparison to untreated samples 5 days after infestation.

[4] = test system: Diabrotica balteata (corn root worm); assay: Example B4: Diabrotica balteata, sprayed maize sprouts; conditions: 96 h, application rate 200 ppm, L2 larvae, 4 days after infestation, read-out: effect in at least one of the two categories (mortality or growth inhibition)
Protocol: as §1, with “Maize sprouts, placed on an agar layer in 24-well” for “24-well”, “plates” for “plates with artificial diet”, “spraying.” for “pipetting.”, “(6” for “(10”, “10” for “15”, “4” for “5”

[5] = test system: Myzus persicae (green peach aphid); assay: Example B5: Myzus persicae, sprayed sunflower leaf discs; conditions: foliar, 144 h, application rate 200 ppm, aphid population of mixed ages, 6 days after infestation
Protocol: Sunflower leaf discs were placed on agar in a 24-well microtiter plate and sprayed with aqueous test solutions prepared from 10,000 ppm DMSO stock solutions. After drying, the leaf discs were infested with an aphid population of mixed ages. The samples were assessed for mortality 6 days after infestation.

[6] = test system: Euschistus heros (neotropical brown stink bug); assay: Example B6: Euschistus heros, sprayed soybean leaf; conditions: 120 h, application rate 200 ppm, N-2 nymphs, 5 days after infestation
Description: Soybean leaf on agar in 24-well microtiter plates were sprayed with aqueous test solutions prepared from 10,000 ppm DMSO stock solutions. After drying the leaf were infested with N-2 nymphs.

[7] = test system: Bemisia tabaci (cotton white fly); assay: Example B10: Bemisia tabaci, sprayed cotton leaf discs; conditions: foliar, 144 h, application rate 200 ppm, adult white flies, 6 days after incubation
Protocol: Cotton leaf discs were placed on agar in 24-well microtiter plates and sprayed with aqueous test solutions prepared from 10,000 ppm DMSO stock solutions. After drying the leaf discs were infested with adult white flies. The samples were checked for mortality 6 days after incubation.

CCS(=O)(=O)c1cc(C2(C#N)CC2)cnc1C(=O)/N=c1\sc(C(F)(F)C(F)(F)F)nn1C [Compound P20, (N)-5-(1-cyanocyclopropyl)-3-ethylsulfonyl-N-[3-methyl-5-(1,1,2,2,2-pentafluoroethyl)-1,3,4-thiadiazol-2-ylidene]pyridine-2-carboxamide]
≥ 80%: percent control (mortality, anti-feedant effect or growth inhibition) at 200 ppm [1] | percent control (mortality, anti-feedant effect or growth inhibition) at 12.5 ppm [2] | percent effect (mortality or growth inhibition) at 200 ppm [3] | percent effect (mortality or growth inhibition) at 200 ppm [4] | mortality at 200 ppm [5] | mortality at 200 ppm [6] | mortality at 200 ppm [7]
